Laboratory results as given in patent publication US20020051978A1, “Methods and compositions for the identification, assessment, prevention and therapy of human cancers” (priority 2000, published 2002).
Like-named read-outs stand apart in the source and are kept apart here.

Experiments:
[1] = tested on: 60 cancer cell lines (NCI 60 cancer cell line series); experiment: NCI-DTP in vitro cancer screen, sulforhodamine B (SRB) growth inhibition, 48 hour exposure; format: cell-based, human; design: key to sensitivity class Ovarian OVCAR-8 CL6005 / sensitivity class Ovarian SK-OV-3 CL6011 / sensitivity class Prostate DU-145 CL11003 / sensitivity class NSCLC NCI-H522 CL1003 / sensitivity class Ovarian IGROV1 CL6010 / sensitivity class Ovarian OVCAR-4 CL6002 / sensitivity class Prostate PC-3(I) CL11001 / sensitivity class Renal A498 CL9013 / sensitivity class Renal SN12C CL9008: sensitivity class: 1 = Low, 2 = Medium, 3 = High
Summary of the method: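 Values come from the NCI-DTP screen database: -log GI50, the concentration giving 50% growth inhibition, derived from SRB cell-mass dose-response curves. Each line seeded at its own density, treated day 1 at five ten-fold-spaced doses in duplicate wells, stained after 48 h.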

[2] = tested on: 60 cancer cell lines (NCI 60 cancer cell line series); settings: cited from earlier work

Sc1ncnc2nc[nH]c12 [6-mercaptopurine]
5.9: -Log (GI50) ([2]; Breast MDA-MB-435 (CL5011)) | -Log (GI50) ([2]; Leukemia CCRF-CEM(I) (CL7003)) | -Log (GI50) ([2]; Leukemia SR CL7019)
6.0: -Log (GI50) ([2]; Ovarian SK-OV-3 CL6011)
6.1: -Log (GI50) ([2]; Ovarian OVCAR-3 CL6001)
1: classification of cell line as Low(1), Medium(2) or High(3) sensitivity to compound ([1]; Breast BT-549 (CL5013)) | classification of cell line as Low(1), Medium(2) or High(3) sensitivity to compound ([1]; Breast HS-578T CL5006) | classification of cell line as Low(1), Medium(2) or High(3) sensitivity to compound ([1]; Breast MDA-MB-231 CL5005) | classification of cell line as Low(1), Medium(2) or High(3) sensitivity to compound ([1]; CNS SNB-19 (CL12002)) | classification of cell line as Low(1), Medium(2) or High(3) sensitivity to compound ([1]; Melanoma SK-MEL-28 (CL10008)) | classification of cell line as Low(1), Medium(2) or High(3) sensitivity to compound ([1]; Melanoma UACC-257 (CL10021)) | classification of cell line as Low(1), Medium(2) or High(3) sensitivity to compound ([1]; NSCLC A549/ATCC (CL1004)) | classification of cell line as Low(1), Medium(2) or High(3) sensitivity to compound ([1]; NSCLC EKVX (CL1008)) | classification of cell line as Low(1), Medium(2) or High(3) sensitivity to compound ([1]; NSCLC NCI-H226 CL1013) | sensitivity class Renal A498 CL9013 ([1]; cell line Renal A498, CL9013) | sensitivity class Renal RXF-393 CL9016 ([1]; cell line Renal RXF-393, CL9016) | sensitivity class Renal SN12C CL9008 ([1]; cell line Renal SN12C, CL9008)
3.9: -Log (GI50) ([2]; Breast BT-549 (CL5013)) | -Log (GI50) ([2]; CNS SNB-19 (CL12002))
4.5: -Log (GI50) ([2]; Renal RXF-393 CL9016)
5.8: -Log (GI50) ([2]; Breast MCF7(I) (CL5001)) | -Log (GI50) ([2]; Breast MDA-N CL5012) | -Log (GI50) ([2]; Leukemia MOLT-4 (CL7006)) | -Log (GI50) ([2]; Leukemia RPMI-8226(I) (CL7010)) | -Log (GI50) ([2]; Melanoma UACC-62 (CL10020)) | -Log (GI50) ([2]; NCSLC NCI-H522 CL1003)
6.5: -Log (GI50) ([2]; Leukemia K562(I) CL7005)
4.2: -Log (GI50) ([2]; Renal A498 CL9013)
4.7: -Log (GI50) ([2]; Breast MDA-MB-231 CL5005)
4.8: -Log (GI50) ([2]; Breast HS-578T CL5006) | -Log (GI50) ([2]; Melanoma UACC-257 (CL10021))
2: classification of cell line as Low(1), Medium(2) or High(3) sensitivity to compound ([1]; Breast MCF7(I) (CL5001)) | classification of cell line as Low(1), Medium(2) or High(3) sensitivity to compound ([1]; Breast MCF7/ADRr (CL5002)) | classification of cell line as Low(1), Medium(2) or High(3) sensitivity to compound ([1]; Breast MDA-MB-435 (CL5011)) | classification of cell line as Low(1), Medium(2) or High(3) sensitivity to compound ([1]; Breast MDA-N CL5012) | classification of cell line as Low(1), Medium(2) or High(3) sensitivity to compound ([1]; Breast T-47D (CL5014)) | classification of cell line as Low(1), Medium(2) or High(3) sensitivity to compound ([1]; CNS SF-268 CL12014) | classification of cell line as Low(1), Medium(2) or High(3) sensitivity to compound ([1]; CNS SF-295 CL12015) | classification of cell line as Low(1), Medium(2) or High(3) sensitivity to compound ([1]; CNS SF-539 CL12016) | classification of cell line as Low(1), Medium(2) or High(3) sensitivity to compound ([1]; CNS SNB-75(I) CL12005) | classification of cell line as Low(1), Medium(2) or High(3) sensitivity to compound ([1]; CNS U251(I) CL12009) | classification of cell line as Low(1), Medium(2) or High(3) sensitivity to compound ([1]; Colon COLO-250 CL4010) | classification of cell line as Low(1), Medium(2) or High(3) sensitivity to compound ([1]; Colon HCC-2998 (CL4002)) | classification of cell line as Low(1), Medium(2) or High(3) sensitivity to compound ([1]; Colon HCT-15 CL4015) | classification of cell line as Low(1), Medium(2) or High(3) sensitivity to compound ([1]; Colon HCT-116 (CL4003)) | classification of cell line as Low(1), Medium(2) or High(3) sensitivity to compound ([1]; Colon HT29(I) CL4001) | classification of cell line as Low(1), Medium(2) or High(3) sensitivity to compound ([1]; Colon KM12 (CL4017)) | classification of cell line as Low(1), Medium(2) or High(3) sensitivity to compound ([1]; Colon SW-620 (CL4009)) | classification of cell line as Low(1), Medium(2) or High(3) sensitivity to compound ([1]; Leukemia HL-60(I) (CL7008)) | classification of cell line as Low(1), Medium(2) or High(3) sensitivity to compound ([1]; Leukemia MOLT-4 (CL7006)) | classification of cell line as Low(1), Medium(2) or High(3) sensitivity to compound ([1]; Leukemia RPMI-8226(I) (CL7010)) | classification of cell line as Low(1), Medium(2) or High(3) sensitivity to compound ([1]; Melanoma MALME-3M CL10002) | classification of cell line as Low(1), Medium(2) or High(3) sensitivity to compound ([1]; Melanoma SK-MEL-2 (CL10005)) | classification of cell line as Low(1), Medium(2) or High(3) sensitivity to compound ([1]; Melanoma SK-MEL-5 (CL10007)) | classification of cell line as Low(1), Medium(2) or High(3) sensitivity to compound ([1]; Melanoma UACC-62 (CL10020)) | classification of cell line as Low(1), Medium(2) or High(3) sensitivity to compound ([1]; NSCLC HOP-62 (CL1026)) | classification of cell line as Low(1), Medium(2) or High(3) sensitivity to compound ([1]; NSCLC HOP-92 (CL1029)) | sensitivity class NSCLC NCI-H23(I) CL1001 ([1]; cell line NSCLC NCI-H23(I), CL1001) | sensitivity class NSCLC NCI-H332M CL1017 ([1]; cell line NSCLC NCI-H332M, CL1017) | sensitivity class NSCLC NCI-H460 CL1021 ([1]; cell line NSCLC NCI-H460, CL1021) | sensitivity class NSCLC NCI-H522 CL1003 ([1]; cell line NSCLC NCI-H522, CL1003) | sensitivity class Ovarian IGROV1 CL6010 ([1]; cell line Ovarian IGROV1, CL6010) | sensitivity class Ovarian OVCAR-4 CL6002 ([1]; cell line Ovarian OVCAR-4, CL6002) | sensitivity class Ovarian OVCAR-5 CL6003 ([1]; cell line Ovarian OVCAR-5, CL6003) | sensitivity class Ovarian OVCAR-8 CL6005 ([1]; cell line Ovarian OVCAR-8, CL6005) | sensitivity class Prostate DU-145 CL11003 ([1]; cell line Prostate DU-145, CL11003) | sensitivity class Prostate PC-3(I) CL11001 ([1]; cell line Prostate PC-3(I), CL11001) | sensitivity class Renal 786-O CL9018 ([1]; cell line Renal 786-O, CL9018) | sensitivity class Renal ACHN CL9023 ([1]; cell line Renal ACHN, CL9023) | sensitivity class Renal CAKI-1 CL9015 ([1]; cell line Renal CAKI-1, CL9015) | sensitivity class Renal TK10 CL9024 ([1]; cell line Renal TK10, CL9024) | sensitivity class Renal UO-31 CL9004 ([1]; cell line Renal UO-31, CL9004)
4.9: -Log (GI50) ([2]; CNS U251(I) CL12009)
5.4: -Log (GI50) ([2]; Breast T-47D (CL5014)) | -Log (GI50) ([2]; CNS SF-268 CL12014) | -Log (GI50) ([2]; Colon HCT-15 CL4015) | -Log (GI50) ([2]; Colon HT29(I) CL4001) | -Log (GI50) ([2]; Melanoma MALME-3M CL10002) | -Log (GI50) ([2]; NSCLC NCI-H23(I) CL1001) | -Log (GI50) ([2]; Prostate PC-3(I) CL11001)
6.2: -Log (GI50) ([2]; Melanoma M14 (CL10014))
5.2: -Log (GI50) ([2]; Colon SW-620 (CL4009)) | -Log (GI50) ([2]; Melanoma SK-MEL-2 (CL10005)) | -Log (GI50) ([2]; Renal ACHN CL9023) | -Log (GI50) ([2]; Renal UO-31 CL9004)
3.5: -Log (GI50) ([2]; Melanoma SK-MEL-28 (CL10008))
4.3: -Log (GI50) ([2]; NSCLC NCI-H226 CL1013)
5.6: -Log (GI50) ([2]; CNS SF-539 CL12016) | -Log (GI50) ([2]; Colon HCT-116 (CL4003)) | -Log (GI50) ([2]; Leukemia HL-60(I) (CL7008)) | -Log (GI50) ([2]; NSCLC HOP-92 (CL1029)) | -Log (GI50) ([2]; Ovarian OVCAR-8 CL6005) | -Log (GI50) ([2]; Prostate DU-145 CL11003) | -Log (GI50) ([2]; Renal CAKI-1 CL9015)
3: classification of cell line as Low(1), Medium(2) or High(3) sensitivity to compound ([1]; Leukemia CCRF-CEM(I) (CL7003)) | classification of cell line as Low(1), Medium(2) or High(3) sensitivity to compound ([1]; Leukemia K562(I) CL7005) | classification of cell line as Low(1), Medium(2) or High(3) sensitivity to compound ([1]; Leukemia SR CL7019) | classification of cell line as Low(1), Medium(2) or High(3) sensitivity to compound ([1]; Melanoma LOX IMVI CL10001) | classification of cell line as Low(1), Medium(2) or High(3) sensitivity to compound ([1]; Melanoma M14 (CL10014)) | sensitivity class Ovarian OVCAR-3 CL6001 ([1]; cell line Ovarian OVCAR-3, CL6001) | sensitivity class Ovarian SK-OV-3 CL6011 ([1]; cell line Ovarian SK-OV-3, CL6011)
5.5: -Log (GI50) ([2]; Breast MCF7/ADRr (CL5002)) | -Log (GI50) ([2]; Colon HCC-2998 (CL4002))
6.4: -Log (GI50) ([2]; Melanoma LOX IMVI CL10001)
4.6: -Log (GI50) ([2]; NSCLC A549/ATCC (CL1004)) | -Log (GI50) ([2]; Renal SN12C CL9008)
5.1: -Log (GI50) ([2]; CNS SNB-75(I) CL12005) | -Log (GI50) ([2]; Colon KM12 (CL4017)) | -Log (GI50) ([2]; Melanoma SK-MEL-5 (CL10007)) | -Log (GI50) ([2]; NSCLC NCI-H332M CL1017) | -Log (GI50) ([2]; Ovarian IGROV1 CL6010) | -Log (GI50) ([2]; Ovarian OVCAR-4 CL6002) | -Log (GI50) ([2]; Ovarian OVCAR-5 CL6003)
5.3: -Log (GI50) ([2]; CNS SF-295 CL12015) | -Log (GI50) ([2]; Colon COLO-250 CL4010) | -Log (GI50) ([2]; NSCLC NCI-H460 CL1021)
5.7: -Log (GI50) ([2]; NSCLC HOP-62 (CL1026)) | -Log (GI50) ([2]; Renal 786-O CL9018) | -Log (GI50) ([2]; Renal TK10 CL9024)
3.6: -Log (GI50) ([2]; NSCLC EKVX (CL1008))
